Here are results for 23 compounds from patent US6335339B1, “Triazine antiviral compounds” (Scriptgen Pharmaceuticals, Inc., priority 1998, dated 2002).

One data set concerns HBV. In words: antiviral assay in 2.2.15 cells producing HBV (virion DNA dot blot). It counts as cell-based, Hepatitis B virus. The following applies: extra-cellular virus reduced by 50%; 2.2.15 cells, 9 days treatment; read-out: Antiviral EC50. From the text:
Several cell lines and cell culture assays have been developed to identify potential therapeutics effective against chronic HBV infection. One of these cell lines, 2.2.15, has been used in a standardized assay that has repeatedly proven to be an accurate model of chronic cellular HBV replication and a predictive model of antiviral response for chronic hepadnaviral infection in vivo. 2.2.15 cells contain copies of the complete HBV genome integrated into the cell's genome, and 2.2.15 cells are not susceptible to infection by HBV. (Sells, M. A. et al., J. Virol. 62 (8): 2836-2844 (1988)). These cells express HBV genes producing complete HBV particles capable of infecting chimpanzees (Acs, G. et al., Proc. Natl. Acad. Sci. USA 84 (13): 4641-4644 (1987)). Briefly, 2.2.15 cells are cultured and pretreated with a test compound for about 9 days, at which point the media are harvested and subjected to dot-blot hybridization to detect HBV virion DNA.
The antiviral activity of the compounds of the present invention is measured by the methods described in Korba and Gering, Antiviral Res. 19: 55-70 (1992).
This assay format is well suited to the screening of test compounds for potential antiviral activity. The assay provides a threshold assessment of antiviral activity by measuring (i) the levels of HBV virion release from the cells and (ii) cytotoxicity. Two rows of cells were used for each compound, and 4 rows for the assay controls (two for untreated, and two for positive antiviral control, e.g., 3TC). After incubating in the presence of test compound for 9 days, the media were harvested, transferred to 96-well U-bottom plates, and centrifuged. The supernatants were transferred to tubes for dot blot hybridization analysis of HBV virion DNA. The medium was aspirated off of the toxicity plates and discarded. Toxicity plates were then incubated with neutral red dye (MTT can also be used if preferred), washed with DPBS, developed with an acetic acid-ethanol solution, and assayed in a plate reader.
1. 2.2.15 cells were seeded into 96-well, flat bottom tissue culture plates as described above. Duplicate plates were used for the antiviral treatments for each test compound (up to 8 compounds per pair of plates); after three to four days, cells were confluent and medium was yellow in color; the medium was removed and replaced with 100 μl RP2 24 hours before the beginning of drug treatment.
i) For each compound, a total of 4 concentrations were examined; this required 9 sets of 4 sterile, 1.1 ml minitubes (36 tubes per compound). Into the first tube of each set, sufficient compound was aliquoted to make up 700 μl (for 10-fold dilution series) or 980 μl (for 3.3-fold dilution series) of the highest test concentration; the other tubes were left empty.
i) For a 10-fold dilution series: to the first (compound containing) tube was added 700 μl (175 μl×4). 630 μl (210 μl×3) RP2 culture medium was added to the remaining 3 tubes. The first tube was mixed by pipeting up and down with a pipetman (a multichannel pipetman permits the simultaneous processing of multiple compounds). 70 μl of test compound-containing medium were serially transferred from the first tube to the other 3 tubes, taking care to thoroughly mix each tube before transferring medium;
b) 100 μl of each dilution of every compound was added to each of 6 wells (3 wells per plate) using the configuration listed below as an example. The lowest concentration was added first, and the same tips were used to add the higher concentrations. The untreated cells received 100 μl RP2 per well (untreated cells have to be carried on only one pair of the antiviral assay plates).
c) Treatments were repeated daily for 9 days. For the last day of treatment, and additional 200 μl RP2 were added to each well of the antiviral assay plates after the wells are treated with the test compounds (a total of 300 μl medium per well).
6. […]

A further data set deals with 2.2.15 cells. Description: neutral red dye uptake cytotoxicity. The class given is cell-based. The following applies: 9 days treatment, read-out: 50% Cell Death CC50. The procedure:
Further, the antiviral effect of any compound must be measured against its toxicity. Cytotoxicity is measured by the neutral red uptake method using the same cells used for antiviral activity.
2b. Compounds were prepared for toxicity treatment as follows: For each compound, a total of 4 concentrations were examined. This required 9 sets of 4 sterile, 1.1 ml minitubes (36 tubes per compound). Into the first tube of each set, sufficient compound was aliquoted to make up 465 μl of the highest test concentration. The other tubes were left empty. The tubes were covered with the rack lids, and stored at −20° C. or at an appropriate temperature. Tubes for the last day of treatment for toxicity testing contain the same amount of compound as used the previous days (not 3xas for the antiviral assays).
3b. The cytotoxicity of test compounds was analyzed in a 3.3-fold dilution series as follows. […] (155 μl×3) of RP2 were added to the first tube (containing the aliquot of compound) and 310 μL (155 μl×2) RP2 to each of the 3 remaining tubes. 150 μl of test compound-containing medium were serially transferred from the first tube to the other 3 tubes.
5. A single plate was used for the toxicity treatments for each test compound (up to 7 compounds per plates since the top row were reserved for untreated cells on every toxicity plate). To initiate the treatments, the culture medium was removed, and 100 μl of each dilution of every compound were added to each of 3 wells using a configuration similar to that shown above for the antiviral treatments. The untreated cells received 100 μl RP2 per well. Treatment was repeated daily for 9 days.
The antiviral effect of any compound was evaluated relative to its toxicity. Cells were seeded and treated following the guidelines above, after which a neutral red dye uptake assay was performed to assess toxicity as described below. Other assays of cytotoxicity (e.g., MTT) can be substituted for the procedure described below. Note that this procedure assesses toxicity under culture and treatment conditions which are identical to those used for the antiviral analyses, thereby permitting a determination as to whether the reduction in virus production due to a specific antiviral effect or due to a cytotoxic effect on the host cell. Since the cultures, by necessity, are at confluence, the cytotoxic effects of the test compounds will probably be reduced relative to the cytotoxic effects that would be expected for actively dividing cells.
1. Cultures were treated with test compounds on the designated toxicity plates as described above.
2. The culture medium was carefully removed 24 hours following the 9th day of treatment. The monolayer was fully removed in the top left three wells (row A, col. 1-3). These wells were used as “blanks” for the plate reader.
3. 100 μl DPBS (containing 0.01% neutral red dye) were added to each well, including the empty wells, and Incubated in the tissue culture incubator for 30 minutes.
4. The dye was removed carefully and gently, using a multichannel pipetman since the monolayers can become fragile after incubation with neutral red dye. 200 μl DPBS were added to all the wells taking care not to displace the monolayers. The DPBS was removed and 100 μl 50% EtOH/1% glacial acetic acid (in H2O) were added to each well. The plates were mixed for 15 minutes on an orbital platform shaker (120-150 RPM) to allow for full extraction of the dye from the cells.
5. Optical absorbance at 510 nm was read in an ELISA type plate reader, using the 3 empty wells to set the background. An average absorbance value was calculated for the 9 untreated cultures on a plate, and the absorbance of dye for the treated cultures on the same plate was expressed as a percentage of that value. This procedure was repeated for each individual plate. […]

For orientation: EC50 means the concentration at which the effect is half-maximal. One may read the CC50 as the concentration at which the toxic effect on the cells reaches its halfway point.

Some results are limits rather than exact numbers.

Turning to `COc1ccccc1C=NNc1nc(NCc2ccccc2)nc(Nc2ccccc2)n1` [Compound 195], the EC50 in the data set on HBV was more than 100 µM. Besides, the CC50 in the data set with 2.2.15 cells was determined as 400 µM.
In the same order, the values of `Cc1ccc(Nc2nc(NN=Cc3ccc(Cl)cc3)nc(N3CCOCC3)n2)cc1Cl` [Compound 196] are more than 100 µM and 381 µM.
Consider `COc1ccc(Nc2nc(NN=Cc3cc(Br)cc(Br)c3O)nc(N3CCOCC3)n2)cc1` [Compound 200], for which, in the data set with HBV, the EC50 is more than 100 µM. In the data set with 2.2.15 cells, the CC50 was determined as 309 µM.
For `Fc1cccc(C=NNc2nc(Nc3ccccc3)nc(N3CCCC3)n2)c1` [Compound 201], the concentration for a half-maximal effect (EC50) in the data set with HBV is more than 100 µM. For the same compound, the CC50 in the data set with 2.2.15 cells was more than 300 µM.
The matching figures for `CCN(CC)c1nc(Nc2cccc(Br)c2)nc(Nc2cc(C)ccc2C)n1` [Compound 202]: more than 100 µM and more than 300 µM.
The matching figures for `O=C(CSc1nc(SCC(=O)Nc2ccccc2C(F)(F)F)nc(SCC(=O)Nc2ccccc2C(F)(F)F)n1)Nc1ccccc1C(F)(F)F` [Compound 212]: more than 100 µM and more than 300 µM.
In the same order, the values of `C(=Cc1ccccc1)C=NNc1nc(Nc2ccccc2)nc(N2CCCC2)n1` [Compound 213] are more than 100 µM and more than 300 µM.
With `CCN(CC)c1nc(NN=Cc2ccc(Cl)c([N+](=O)[O-])c2)nc(Nc2cc(C)ccc2C)n1` [Compound 214], the EC50 with HBV is more than 100 µM. For the same compound, in the data set with 2.2.15 cells, the CC50 was more than 300 µM.
The matching figures for `Clc1ccc(C=NNc2nc(Nc3ccccc3)nc(N3CCCC3)n2)cc1` [Compound 218]: more than 100 µM and more than 300 µM.
The matching figures for `Cc1ccc(Nc2nc(NCc3ccccc3)nc(NN=Cc3cc(Br)cc(Br)c3O)n2)cc1C` [Compound 219]: more than 100 µM and more than 300 µM.
As for `O=C(NNc1nc(Nc2ccccc2)nc(Nc2cccc(C(F)(F)F)c2)n1)c1cccc(Br)c1` [Compound 220], the EC50 with HBV is more than 100 µM. The CC50 in the data set on 2.2.15 cells is more than 300 µM.
In the same order, the values of `CN(C)c1nc(NCc2ccccc2)nc(NN=Cc2ccc(Cl)cc2Cl)n1` [Compound 224] are more than 100 µM and more than 300 µM.
The matching figures for `COc1ccc(Nc2nc(NCc3cccc([N+](=O)[O-])c3)nc(NCc3cc(F)ccc3F)n2)cc1OC` [Compound 225]: more than 100 µM and 281 µM.
Take `Cc1ccc(Nc2nc(NCc3ccccc3)nc(NN=Cc3cc(Cl)ccc3O)n2)cc1C` [Compound 226]: the EC50 in the data set with HBV is more than 100 µM. The CC50 in the data set with 2.2.15 cells was determined as 280 µM.
The matching figures for `CC(=NNc1nc(Nc2ccccc2)nc(N2CCCC2)n1)c1ccc(F)cc1` [Compound 227]: more than 100 µM and 247 µM.
The matching figures for `Cc1ccc(Nc2nc(NCc3ccccc3)nc(NN=Cc3ccccc3F)n2)cc1C` [Compound 228]: more than 100 µM and 243 µM.
The matching figures for `Cc1ccc(Nc2nc(NN=Cc3cccc([N+](=O)[O-])c3)nc(Nc3ccccc3)n2)c(C)c1` [Compound 229]: more than 100 µM and 237 µM.
Regarding `Brc1ccc(Nc2nc(NCc3ccccc3)nc(Nc3ccc(Br)cc3)n2)cc1` [Compound 230], in the data set with HBV, the EC50 was more than 100 µM. In addition, in the data set on 2.2.15 cells, the CC50 came to 231 µM.
In the same order, the values of `O=[N+]([O-])c1ccc(Nc2nc(NCc3ccccc3)nc(N3CCOCC3)n2)cc1` [Compound 231] are more than 100 µM and 218 µM.
In the same order, the values of `Oc1ccc(Br)cc1C=NNc1nc(Nc2cccc(Br)c2)nc(N2CCOCC2)n1` [Compound 232] are more than 100 µM and 190 µM.
As to `CNc1nc(NN=Cc2cc(Cl)ccc2O)nc(Nc2ccccc2)n1` [Compound 245], the EC50 in the data set with HBV is more than 100 µM. Further, in the data set on 2.2.15 cells, the CC50 turned out to be 137 µM.
Regarding `Oc1ccc(Br)cc1C=NNc1nc(Nc2cccc(C(F)(F)F)c2)nc(N2CCOCC2)n1` [Compound 246], the EC50 with HBV was 5.2 µM. The CC50 in the data set on 2.2.15 cells is 141 µM.
On to `FC(F)(F)c1cccc(Nc2nc(Nc3cccc(Cl)c3)nc(N3CCOCC3)n2)c1` [Compound 247], for which, in the data set on HBV, the EC50 was more than 100 µM. Further, in the data set on 2.2.15 cells, the CC50 stood at 136 µM.
